Literature values, collected in patent US8268828B2, “Inhibitors of the chemokine receptor CxCR3” (Sanofi, priority 2008, dated 2012).

Legend:
[1] = test system: metastatic breast cancer
[2] = test system: Collagen Induced Arthritis (CIA); details: CIA mice

Row | SMILES | reduction of the number of metastases ([1]; mouse model of metastatic breast cancer) [%] | direct effect on proliferation ([1]; tumor cells) | classical picture of inflammation (swollen red joints in limbs) [2] | leukocytic infiltration of joints ([2]; histologic evaluation)
1 | CCOc1ccc(-n2c([C@@H](C)N(Cc3cccnc3)C(=O)Cc3ccc(OC(F)(F)F)cc3)nc3ncccc3c2=O)cc1 [AMG-487] | 60 | no direct effect |  | 
2 | Cc1ccc(-c2ccc3c(c2)C=C(C(=O)Nc2ccc(C[N+](C)(C)C4CCOCC4)cc2)CCC3)cc1.[Cl-] [TAK-779] |  |  | ablated | blocked
